Earlier results as cited in publication PMC5762609 (Journal of Pharmaceutical Analysis, 2016).

For `CC(=O)O[C@H]1C(=O)[C@]23C[C@H]2C[C@H]2OC[C@@]2(OC(C)=O)[C@H]3[C@H](OC(=O)c2ccccc2)[C@]2(O)C[C@H](OC(=O)[C@H](O)[C@@H](NC(=O)OC(C)(C)C)c3ccccc3)C(C)=C1C2(C)C` [Larotaxel], the Content in tissues is listed as “higher in rich-blood tissues, such as heart, liver, spleen, lung and kidney” and the Tissue distribution is listed as “distributed widely and rapidly”.
